According to article PMC3468400, “Pharmacokinetic profiles of artesunate following multiple intravenous doses of 2, 4, and 8 mg/kg in healthy volunteers: Phase 1b study” (Malaria Journal, 2012):
Like-named read-outs stand apart in the source and are kept apart here. Each block holds one compound with its values, some of them ahead of it.

Legend:
[1] = tested on: severe falciparum malaria; settings: SEAQUAMAT, severe malaria patients, intravenous treatment; cited from earlier work
[2] = tested on: asexual blood stage parasites; settings: cited from earlier work
[3] = Pharmacokinetics of dihydroartemisinin (DHA), active metabolite, in plasma after multiple intravenous AS doses, non-compartmental analysis; assay type: in vivo, human; settings: for Total AUCD1-D3: DHA, days 1-3; for AUC: Mean AUC of DHA, range over doses, AS 2-8 mg/kg iv
Experimental: The study was a double blind, ascending multiple doses, alternating group, safety, tolerance, and PK study. […] When the injection was completed, the study nurse recorded tolerance of injection to include both inspection of site and subjects’ responses. Subjects were provided a light lunch at approximately 4 hours after dosing. Normal activities, excluding strenuous exercise, were permitted four hours after dosing. […] During the multiple-dose period, samples were collected immediately before morning dose on days 2 and 3 for additional trough values. All the samples were stored at −80 °C until shipment and were then shipped to a bio-analytical GLP laboratory, Midwest Research Institute (MRI), in Kansas City, MO, USA. The human use protocol numbers for the Phase 1 trial are: USUHS #G183RW; WRIAR #1128; and HSRRB #A-13276.
The analytes were extracted from human plasma with ethyl acetate. […] The reconstituted extracts were analysed on a Micromass Quattro II Mass Spectrometer in the positive ion electrospray ionization (+ESI) mode. […] This method employed a Varian Pursuit C18 column (150 x 2.0 mm, 5-μm particle size) and a gradient elution with the following mobile phases: A: 10 mM ammonium acetate in water with 1% formic acid and B: 10 mM ammonium acetate in acetonitrile with 1% formic acid, for the chromatographic separation.
Calibration standards and QC samples were analysed to evaluate the performance of the assay.
The maximum concentration in plasma for each subject was read directly from the experimental values. […] The values of the following PK parameters were derived by a non-compartmental method: the half-life (t½); mean residence time (MRT); the AUC from time zero to the last sampling time (AUCt); the AUC from time zero extrapolated to infinity (AUCinf); relative total systemic clearance (CL/F_obs); and volume of distribution during steady state (Vss/F_obs). A drug accumulation index was estimated from the AUC value on day 3 divided by the AUC value on day 1 (first multiple dose administration).

[4] = human, plasma, intravenous, all days and dose cohorts

SMILES: C=C[C@H]1C[N@@]2CC[C@H]1C[C@H]2[C@H](O)c1ccnc2ccc(OC)cc12 [quinine]
mortality rate [1]: 22%

Mean peak concentrations of DHA over the three days, range ([3]; 4 mg/kg cohort): 2923 to 3018 ng/mL
Mean peak concentrations of DHA over the three days, range ([3]; 8 mg/kg cohort): 5762 to 6056 ng/mL
Total AUCD1-D3 ([3]; AS 2 mg/kg iv daily for 3 days, mean (CV%), n = 6): 6520 (18)
Total AUCD1-D3 ([3]; AS 4 mg/kg iv daily for 3 days, mean (CV%), n = 6): 12092 (20)
Total AUCD1-D3 ([3]; AS 8 mg/kg iv daily for 3 days, mean (CV%), n = 6): 27635 (34)
time DHA detected in plasma ([3]; after each short-term infusion of AS, all volunteers): until six hours
AUC(0-inf) ([3]; human, plasma, intravenous, 2 mg/kg, Mean AUCinf of DHA over three days, range, 2 mg/kg cohort): 2020 to 2380 ng·h/mL
AUC(0-inf) ([3]; human, plasma, intravenous, 4 mg/kg, Mean AUCinf of DHA over three days, range, 4 mg/kg cohort): 3740 to 4390 ng·h/mL
AUC(0-inf) ([3]; human, plasma, intravenous, 8 mg/kg, Mean AUCinf of DHA over three days, range, 8 mg/kg cohort): 8730 to 9700 ng·h/mL
CL/F [3, 4]: 14.6 to 19.4 mL/min/kg
Tmax [3, 4]: 0.16 to 0.29 h
Cmax ([3]; human, plasma, iv, 2 mg/kg): 1740 ng/mL
MRT ([3]; human, plasma, iv, 2 mg/kg, Day 1, DHA after AS 2 mg/kg iv daily for 3 days, 2 min infusion, mean (CV%), n = 6, NCA): 1.41 h
AUC(0-inf) ([3]; human, plasma, iv, 2 mg/kg, Day 1, DHA after AS 2 mg/kg iv daily for 3 days, 2 min infusion, mean (CV%), n = 6, NCA, read-out: AUCinf): 2120 ng·h/mL
half-life ([3]; human, plasma, iv, 2 mg/kg, Day 1, DHA after AS 2 mg/kg iv daily for 3 days, 2 min infusion, mean (CV%), n = 6, NCA, read-out: t1/2 elimination (converted)): 1.19 h
MRT ([3]; human, plasma, iv, 2 mg/kg, Day 3, DHA after AS 2 mg/kg iv daily for 3 days, 2 min infusion, mean (CV%), n = 6, NCA): 1.39 h
Tmax ([3]; human, plasma, iv, 2 mg/kg, read-out: Tmax): 0.29 h
Cmax ([3]; human, plasma, iv, 4 mg/kg): 3020 ng/mL
MRT ([3]; human, plasma, iv, 4 mg/kg, Day 1, DHA after AS 4 mg/kg iv daily for 3 days, 2 min infusion, mean (CV%), n = 6, NCA): 1.91 h
AUC(0-inf) ([3]; human, plasma, iv, 4 mg/kg, Day 1, DHA after AS 4 mg/kg iv daily for 3 days, 2 min infusion, mean (CV%), n = 6, NCA, read-out: AUCinf): 4390 ng·h/mL
half-life ([3]; human, plasma, iv, 4 mg/kg, Day 1, DHA after AS 4 mg/kg iv daily for 3 days, 2 min infusion, mean (CV%), n = 6, NCA, read-out: t1/2 elimination (converted)): 1.74 h
MRT ([3]; human, plasma, iv, 4 mg/kg, Day 3, DHA after AS 4 mg/kg iv daily for 3 days, 2 min infusion, mean (CV%), n = 6, NCA): 1.57 h
AUC(0-inf) ([3]; human, plasma, iv, 4 mg/kg, Day 3, DHA after AS 4 mg/kg iv daily for 3 days, 2 min infusion, mean (CV%), n = 6, NCA, read-out: AUCinf): 3960 ng·h/mL
half-life ([3]; human, plasma, iv, 4 mg/kg, Day 3, DHA after AS 4 mg/kg iv daily for 3 days, 2 min infusion, mean (CV%), n = 6, NCA, read-out: t1/2 elimination (converted)): 1.24 h
Tmax ([3]; human, plasma, iv, 4 mg/kg, read-out: Tmax): 0.25 h
Cmax ([3]; human, plasma, iv, 8 mg/kg): 6060 ng/mL
MRT ([3]; human, plasma, iv, 8 mg/kg, Day 1, DHA after AS 8 mg/kg iv daily for 3 days, 2 min infusion, mean (CV%), n = 6, NCA): 1.81 h
AUC(0-inf) ([3]; human, plasma, iv, 8 mg/kg, Day 1, DHA after AS 8 mg/kg iv daily for 3 days, 2 min infusion, mean (CV%), n = 6, NCA, read-out: AUCinf): 9700 ng·h/mL
half-life ([3]; human, plasma, iv, 8 mg/kg, Day 1, DHA after AS 8 mg/kg iv daily for 3 days, 2 min infusion, mean (CV%), n = 6, NCA, read-out: t1/2 elimination (converted)): 1.42 h
MRT ([3]; human, plasma, iv, 8 mg/kg, Day 3, DHA after AS 8 mg/kg iv daily for 3 days, 2 min infusion, mean (CV%), n = 6, NCA): 1.78 h
AUC(0-inf) ([3]; human, plasma, iv, 8 mg/kg, Day 3, DHA after AS 8 mg/kg iv daily for 3 days, 2 min infusion, mean (CV%), n = 6, NCA, read-out: AUCinf): 9200 ng·h/mL
half-life ([3]; human, plasma, iv, 8 mg/kg, Day 3, DHA after AS 8 mg/kg iv daily for 3 days, 2 min infusion, mean (CV%), n = 6, NCA, read-out: t1/2 elimination (converted)): 1.34 h
half-life ([3]; human, plasma, iv, 8 mg/kg, mean elimination half-life of DHA, range, range of means over three days and AS 2, 4, 8 mg/kg iv doses): 1.23 to 1.63 h
Tmax ([3]; human, plasma, iv, 8 mg/kg, read-out: Tmax): 0.25 h
AUC ([3]; human, plasma, iv, day 1): 2120 to 9700 ng·h/mL
AUC ([3]; human, plasma, iv, day 3): 2380 to 9200 ng·h/mL
mean elimination half-life of DHA, range ([3]; range of means over three days and AS 2, 4, 8 mg/kg iv doses): 1.19 to 1.91 h
SMILES: C[C@H]1[C@@H](O)O[C@@H]2O[C@@]3(C)CC[C@H]4[C@H](C)CC[C@@H]1[C@@]24OO3 [DHA, dihydroartemisinin]
time to complete inhibition of parasite growth [2]: within two to four hours
